Assay results taken from patent publication US9238684B2, “SPANX-B polypeptides and their use” (The United States of America, as represented by the …, priority 2009, dated 2016).
“Also recorded” adds a separate entry of the source.

Legend:
[1] = tested on: OVCAR3 cells; test: CTL 51Cr release assay on OVCAR3; format: cell-based, human; settings: HLA-A2-positive, SPANX-B-negative target; FIG. 6D
Experimental: (§1) CTL assay and HLA blocking experiments: Tumor cell lines (target cells, 2×10^6) were incubated in 200 μL of fetal bovine serum (FBS) with 200 μCi of Na2^51CrO4 (PerkinElmer, Billerica, Mass.) for 2 hours at 37° C. Cells were washed with RPMI three times and resuspended in cRPMI with 10% FBS at 1×10^5 cells/mL. CTL assay was performed in triplicate in 96-well round bottom plates with 1×10^4/well ^51Cr-labeled target cells. The target cells were co-cultured at indicated ratios with effector cells (peptide-specific CD8^+ T cells) for 6 hours. The specific ^51Cr-release is calculated using formula: ((test sample release−spontaneous release)/(maximum release−spontaneous release))×100). Maximum release is for the target cells alone lysed with 2% Triton X-100.

[2] = tested on: UACC1273 melanoma cells; test: CTL 6-hour 51Cr release assay on UACC1273; format: cell-based, human; settings: SPANX-B-expressing, HLA-A2-positive target; FIGS. 6A-C
Experimental: as §1

[3] = tested on: SPANX-B; test: DNA immunization of mice, serum ELISA on peptide-coated plates; format: in vivo; settings: plates coated with peptide 5 μg/ml; FIG. 7
Experimental: Mice were intradermally immunized twice with 25 μg plasmid DNA constructs including MIP-3α-SPANX-B. Sera were tested for SPANX-B antibodies by ELISA assay in 96-well plates coated with the indicated peptides (5 μg/ml). […] The other was near the N-terminus, encoded by Pep-G1 (SEQ ID NO: 14) and Pep-2 (SEQ ID NO: 2) and Pep-3 (SEQ ID NO: 3).

[4] = tested on: murine anti-SPANX-B antibody; test: ELISA on peptide-coated plates with murine anti-SPANX-B antibody; format: binding; settings: Ab from mice DNA immunized with SPANX-B-expressing plasmid; FIG. 1B
Experimental: FIGS. 1A-1F are digital images, a graph and a schematic diagram illustrating the specificity of antibody and expression of SPANX-B in human immortalized tumor cell lines. FIG. 1A is a digital image showing ANEA-I0117 antibody recognized SPANX-B expressed in mouse erythroleukemia RL5 cells. Western blotting results are shown with ANEA-I0117 anti-SPANX-B antibody on lysates of RL5 cells (2 μl, 5 μl and 10 μl, respectively) transiently transduced with plasmid expressing SPANX-B (SPANX-B). Control lysates were made from untransduced parental RL5 cells (Control). FIG. 1B is a graph showing murine anti-SPANX-B antibody, which was generated from mice DNA immunized with plasmid expressing SPANX-B, recognized unique SPANX-B-specific insert of SPANX-B (encoded in Pep-G1 and Pep-2 peptides), ELISA assay on plates coated with various peptides that are depicted in FIG. 1C. […] FIG. 1D is a digital image showing the expression of SPANX-B protein evaluated by Western blotting with ANEA-I0117 Ab (1:5000) in lysates of cell lines, such as HEK293 (HEK), Jurkat, CRL 7002, UACC1273, 938 Mel, CCRF-CEM (CEM), and normal human donor PBMC (upper panel). The blot was stripped and hybridized with anti-actin antibody (lower panel). FIGS. 1E and 1F are digital images obtained from an immunohistochemistry and immunofluorescent assay, respectively, of melanoma (UACC1273) and ovarian carcinoma (2008 and OVCAR3) cell lines. The cells were stained with ANEA-I0117 Ab (right and bottom panels in FIG. 1E and FIG. 1F, respectively); and control IgG (left and upper panels in FIG. 1E and FIG. 1F, respectively).
SPANX-B can be often found in the list of highly expressed genes in microarray study of human tumors, including hematological malignancies and breast cancer (see, for example, Minn et al., Nature 436(7050):518-24, 2005). To confirm this, expression was tested using two antibodies, a rabbit 3ANEA Ab and mouse SPANX-B Ab. […] The second SPANX-B Ab was produced from mice DNA immunized with SPANX-B-expressing plasmid. […] In contrast, it reacted with a second peptide Pep-2 that only represented unique for SPANX-B insert of Pep-G1 (FIGS. 1B and C).

[5] = tested on: SPANX-B-specific CD8^+ T cell lines; test: IFNγ secretion (ELISA) by CD8+ T cell lines stimulated with antigen-pulsed autologous DCs; format: cell-based, human
[6] = tested on: primary human melanoma cells; test: CTL 51Cr release assay on primary human melanoma cells; format: cell-based
Experimental: as §1

[7] = tested on: HEK293 cells; test: CTL 51Cr release assay on HEK293 cells pulsed with Pep-2; format: cell-based, human; settings: FIGS. 6A-C
Experimental: as §1

EANEANKTM (Synthetic peptide Pep-2) was tested, and the “lysis of OVCAR3 cells by CD8+ T cells, with or without Pep-2 pulsing” value [1] was “could not lyse HLA-A2-positive OVCAR3 cells that did not express SPANX-B, unless pulsed with Pep-2”, the “lysis of UACC1273 melanoma cells by CD8+ T cell lines generated to the antigen” value [2] was “killed UACC1273 melanoma cells” and the “B cell epitope recognized by sera of immunized mice (ELISA)” value [3] was “Immunodominant B cell epitopes”. For the same sequence, the “recognition of peptide by mouse SPANX-B Ab (ELISA)” value [4] was “but not other region-specific peptides; also recorded: reacted with”, the “recognition of SPANX-B protein-pretreated DCs by CD8+ T cells generated with peptide-pulsed DCs” value [5] was “also recognized SPANX-B protein-pretreated DCs” and the “IFNγ secretion by SPANX-B-specific CD8+ T cells on stimulation with pulsed DCs” value ([5]; irradiated autologous DCs, lines generated with SPANX-B protein, FIG. 5A) was “secreted IFNγ”. For the same sequence, the “lysis of HLA-A2-expressing primary melanoma tumors by CD8+ lines generated to the antigen” value ([6]; Tc526, Tc624 and Tc2492) was “recognized and lysed”, the “lysis of HLA-A2-negative primary melanoma tumors by CD8+ lines generated to the antigen” value ([6]; Tc2547 and Tc938, FIG. 6E) was “not affected” and the “lysis of HLA-A2-expressing HEK293 cells pulsed with Pep-2 by CD8+ T cell lines generated to the antigen” value ([7]; HEK-A2, pulsed with 1 μg/ml Pep-2) was “lysed HLA-A2-expressing HEK293 cells that were pulsed with Pep-2”. The “lysis of HLA-A2-negative parental HEK293 cells by CD8+ T cell lines generated to the antigen” value ([7]; HEK) was “did not kill”.
